# In paper PMC3215729, “Rv2607 from Mycobacterium tuberculosis Is a Pyridoxine 5′-Phosphate Oxidase with Unusual Substrate Specificity” (PLoS ONE, 2011):
# Molecular target: T1, Rv2607 (PNPOx) (Mycobacterium tuberculosis, UniProt P9WIJ1)
# T1 construct: gene pdxH
# T1 sequence (P9WIJ1 whole entry): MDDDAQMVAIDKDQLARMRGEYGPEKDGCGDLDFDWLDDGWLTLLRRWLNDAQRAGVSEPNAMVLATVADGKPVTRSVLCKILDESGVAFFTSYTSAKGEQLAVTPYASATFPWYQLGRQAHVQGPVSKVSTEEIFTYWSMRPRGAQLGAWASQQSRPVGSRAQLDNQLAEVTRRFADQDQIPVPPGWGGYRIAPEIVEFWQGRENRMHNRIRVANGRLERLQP
smiles,measurement,value
Cc1cc2nc3c(=O)[nH]c(=O)nc-3n(C[C@H](O)[C@H](O)[C@H](O)COP(=O)(O)O)c2cc1C [FMN],native nESI-MS of intact complex; ESI-MS identification of extracted cofactor,The yellow cofactor bound tightly to Rv2607 as purified and was unambiguously identified as FMN
